The test system of one experiment is T. brucei. As to conditions: cited from earlier work.
In experiment [1] the test system is T. brucei (S427 single marker line). The experiment can be described thus: microbe, parasite or virus in culture. In kind it is cell-based, Trypanosoma brucei. As to conditions: for EC50: Trypanosoma brucei.
Experiment [2] deals with MRC-5 cell line (normal diploid human fibroblasts). The experiment can be described thus: cells. In kind it is cell-based. The settings on record: MRC5, read-out: pEC50 MRC-5 (converted).

The structures appear in SMILES notation. Like-named read-outs stand apart in the source and are kept apart here.

`NCCCC(N)(C(=O)O)C(F)F` (centres unmarked) [eflornithine]: the “Hill slope (s)” value in the experiment on T. brucei is 4.0. With `O=C(Cc1ccc(Cl)c(Cl)c1)Nc1ccccc1N1CCCC1` [Compound 44, 2-(3,4-Dichlorophenyl)-N-[2-(pyrrolidin-1-yl)phenyl]acetamide], the “fold loss of potency relative to 38” value in experiment [1] was > 66 fold. Also, the EC50 in experiment [1] (72 h, read-out: EC50 T. b. brucei) worked out at 17700 nM.

As to `N=C(N)c1ccc(OCCCCCOc2ccc(C(=N)N)cc2)cc1` [Pentamidine], in experiment [1] (read-out: pEC50 T. brucei (converted)), the EC50 was 3.55 nM.

Consider `COc1cccc2c1C(=O)c1c(O)c3c(c(O)c1C2=O)C[C@@](O)(C(=O)CO)C[C@@H]3O[C@H]1C[C@H](N)[C@H](O)[C@H](C)O1` [doxorubicin], for which the EC50 in experiment [2] is 70.8 nM.

The values above are taken from PMC3229842 (Chemmedchem, 2011).
